Patent US20230355622A1, “METHODS OF CHEMOVACCINATION AGAINST PLASMODIUM INFECTIONS” (Merck Sharp & Dohme LLC, priority 2020, published 2023)

What was measured:
[1] = system: PbmCherryLuci; test: Rechallenge of chemo-protected mice by mosquito bite infection at 6 and 12 months (FIG. 2A, 2B); type: in vivo, Plasmodium berghei; settings: 15 infected mosquito bites
Description: Previously chemo-protected mice were rechallenged with PbmCherryLuci 6 months later by mosquito bite infection. […] In both experiments naïve, sex matched control mice all became infected as expected. Thus in addition to chemoprotection, Example IA could possibly act as a chemovaccination to protect against future infections for one year or more.

[2] = system: P. berghei sporozoites expressing mCherry and Luciferase (PbmCherryLuci); test: Chemoprotection of BALB/c mice infected with PbmCherryLuci sporozoites (FIG. 1); type: in vivo, Plasmodium berghei; settings: female BALB/c mice, 40,000 sporozoites i.v.; treated twice by oral gavage at 36 and 48 hours during liver infection; 30 days monitoring
Procedure: 40,000 PbmCherryLuci sporozoites (or the indicated number of sporozoites) were inoculated i.v. and compounds were administered by oral gavage at indicated time points during liver infection. Liver infection levels and egress of parasites from the liver were measured by bioluminescence signal from the parasites using an In Vivo Imaging System (IVIS, Perkin Elmer) at the peak of liver infection (52 hours post infection, hpi), during liver egress (55 hpi) as well as during the first round of blood infection (65 hpi). Initiation of blood infection was also measured by flow cytometry at 65 hpi using the mCherry reporter to determine the parasitemia of this first round of blood infection. These analyses allowed quantification of the efficacy of drug killing of parasites in the liver (52 hpi), preventing their egress from the liver (55 hpi) or preventing their successful infection of the blood (65 hpi). Mice were monitored by giemsa stained thin blood smears for the presence of parasites in the blood for 30 days post infection. If no blood infection was seen during the subsequent 30 days, mice were declared cured of malaria infection.
Mice were infected with 40,000 P. berghei sporozoites expressing mCherry and Luciferase (PbmCherryLuci) and treated with Example 1A as described above. […]

[3] = system: parasite; test: Parasite LDH growth assay (Parasite Assay), antiparasite potency; type: cell-based; settings: 72 h
Procedure, shortened: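 Growth was read by an LDH assay after a freeze–thaw cycle (−80 °C overnight, 4 h thaw at RT). Before that, parasites grew with compound for 72 h at 37 °C under gassed, humidified conditions. The input was a ring-stage culture adjusted to 0.7% parasitemia and 2% haematocrit in serum (5%)/albumax (0.5%)-supplemented RPMI-Hepes.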

## CCC1(CC)CC(=O)N(C2CCOc3ccc(C(=O)N[C@H]4CC(C)(C)Oc5ccccc54)cc32)C(=N)N1 (stereo partly drawn) [Example 1A, 4-(4,4-diethyl-2-imino-6-oxotetrahydropyrimidin-1(2H)-yl)-N—((S)-2,2-dimethylchroman-4-yl)chroman-6-carboxamide]
[1]; rechallenge 6 months later
  immunity to reinfection challenge: all mice were subsequently immune
[1]; rechallenge 12 months after chemoprotection
  mice fully protected on rechallenge: Four of five mice were again fully protected
[2]
  cure of infection / prevention of subsequent blood infection: cured mice of infection
[3]
  EC50: 500 pM
